How the values were obtained:
[1] = tested on: Calu-3; assay: hypoxic/normoxic cytotoxicity, Calu-3; type: cell-based; conditions: Homo sapiens, survival at 72 h, n=3, conjugate as TPZ groups
[2] = tested on: MDA-MB-468; assay: hypoxic/normoxic cytotoxicity, MDA-MB-468; type: cell-based; conditions: Homo sapiens, survival at 72 h, n=3, conjugate as TPZ groups
[3] = tested on: MIA PACA-2; assay: hypoxic/normoxic cytotoxicity, MIA PACA-2; type: cell-based; conditions: Homo sapiens, survival at 72 h, n=3, conjugate as TPZ groups
[4] = tested on: SKBr3; assay: hypoxic/normoxic cytotoxicity, SKBr3; type: cell-based; conditions: Homo sapiens, survival at 72 h, n=3, conjugate as TPZ groups
[5] = tested on: CAL-27; assay: hypoxic/normoxic cytotoxicity, CAL-27; type: cell-based; conditions: Homo sapiens, survival at 72 h, n=3, conjugate as TPZ groups
[6] = tested on: SNU-423; assay: hypoxic/normoxic cytotoxicity, SNU-423; type: cell-based; conditions: Homo sapiens, survival at 72 h, n=3, conjugate as TPZ groups
[7] = tested on: human tumoral cell lines; assay: tumour cell viability assays on a panel of human cancer cell lines (overall statements, FIG. 8-10); conditions: eight cancer cell lines, 3 h exposure, FIG. 9 and 10
[8] = tested on: Calu-6; assay: hypoxic/normoxic cytotoxicity, Calu-6; type: cell-based; conditions: Homo sapiens, survival at 72 h, n=3, conjugate as TPZ groups
[9] = tested on: HepG2; assay: hypoxic/normoxic cytotoxicity, HepG2; type: cell-based; conditions: Homo sapiens, survival at 72 h, n=3, conjugate as TPZ groups
[10] = tested on: A549; assay: hypoxic/normoxic cytotoxicity, A549; type: cell-based; conditions: Homo sapiens, survival at 72 h, n=3, conjugate as TPZ groups
[11] = tested on: T47D; assay: hypoxic/normoxic cytotoxicity, T47D; type: cell-based; conditions: Homo sapiens, survival at 72 h, n=3, conjugate as TPZ groups
[12] = tested on: MDA-MB-231; assay: hypoxic/normoxic cytotoxicity, MDA-MB-231; type: cell-based; conditions: Homo sapiens, survival at 72 h, n=3, conjugate as TPZ groups
[13] = tested on: MCF-7; assay: hypoxic/normoxic cytotoxicity, MCF-7; type: cell-based; conditions: Homo sapiens, survival at 72 h, n=3, conjugate as TPZ groups
[14] = tested on: FaDu; assay: hypoxic/normoxic cytotoxicity, FaDu; type: cell-based; conditions: Homo sapiens, survival at 72 h, n=3, conjugate as TPZ groups
[15] = tested on: Hep3B2; assay: hypoxic/normoxic cytotoxicity, Hep3B2; type: cell-based; conditions: Homo sapiens, Hep3B, survival at 72 h, n=3, conjugate as TPZ groups
[16] = tested on: human tumoral cell lines
[17] = tested on: LNCaP tumor; assay: tumor growth in LNCaP tumor-bearing athymic nude mice; type: in vivo; conditions: i.v. every 3 day, 21 days
Protocol: Tumor-bearing mice were prepared by injecting a suspension of LNCaP cells 1×10^6 in saline physiological solution (100 μL) into the subcutaneous dorsa of athymic nude mice (seven weeks old, 20-25 g). After fourteen days of appropriate tumor growth, LNCaP bearing mice were divided into eight groups (n=10 for each group). Treatment was initiated when the tumor volume reached 90 mm^3. The mice were then i.v. injected with 200 μL of the following solutions: […] DMSO to obtain doses of 3, 6, 25 mg/Kg, HAB to obtain a dose of 50 mg/Kg, and DMSO 11% wt. in PBS. Intravenous injections, administered in tail vein, were performed every 3 day for a total period of 21 days of treatment and then sacrificed according to ethical laws in force, following a literature method^1. The tumor size was determined by caliper measurement of the largest and perpendicular diameters during the time of treatment. Tumor volumes were calculated according to the formula: V=a×b^2×0.52, where a is the largest superficial diameter and b is the smallest superficial diameter, according to a literature procedure^17.

[18] = tested on: C66-1 squamous nasopharynx carcinoma cells; conditions: 72 h; cited from earlier work
[19] = literature; cited from earlier work
[20] = tested on: NCI-H209 lung cancer cells; conditions: 24 h; cited from earlier work
[21] = tested on: MCF7 breast cancer cells; conditions: 72 h; cited from earlier work
[22] = tested on: 16-F10 melanoma cells; conditions: 72 h; cited from earlier work
[23] = tested on: HK1 squamous nasopharynx carcinoma cells; conditions: 72 h; cited from earlier work
[24] = tested on: MDA-MB-231 breast cancer cells; assay: MTT toxicity of curcumin and curcumin-HAB conjugate; type: cell-based
Protocol: MDA-MB-231 breast cancer cells were cultured in RPMI-1640 (Gibco) containing 10% FBS, 1% Pen-Strep, L-Glutamine 2 mM (medium) at 37° C. in a humidified 5% CO2 atmosphere. To determine the toxicity of curcumin and a curcumin-HAB conjugate, cells were seeded in 96-well plates at a density of 1,000 cells per well in medium and left to attach for 24 hours. Medium was then removed and replaced with medium containing various concentrations of curcumin or the curcumin-HA conjugate. […] After this time, drug containing medium was removed, replaced with fresh medium and cells incubated for a further 96 hours. […] Briefly, 50 μl of MTT solution (0.5 mg/ml in cell culture medium) was added to each well. After incubation for a further 4 h at 37° C. the medium was removed from each well and replaced with 200 μl of DMSO to dissolve the formazan crystals. The Absorbance in each well was then read at a wavelength of 450 nm using a Tecan Infinite M200 plate-reader using I-control software. The relative cell viability (%) was calculated by the formula [A]test/[A]control×100, where “[A]test” is the absorbance of the test sample, and “[A]control” is the absorbance of the control cells incubated solely with culture medium.

[25] = Calu-3, Calu-3, 0.1% O2, 3 h exposure
[26] = Calu-3, Calu-3, Air, 3 h exposure
[27] = MDA-MB-468, MDA-MB-468, 0.1% O2, 3 h exposure
[28] = MDA-MB-468, MDA-MB-468, Air, 3 h exposure
[29] = MIA PaCa-2, MIA PACA-2, 0.1% O2, 3 h exposure
[30] = MIA PaCa-2, MIA PACA-2, Air, 3 h exposure
[31] = SK-BR-3, SKBr3, 0.1% O2, 3 h exposure
[32] = SK-BR-3, SKBr3, Air, 3 h exposure
[33] = CAL-27, CAL-27, 0.1% O2, 3 h exposure
[34] = CAL-27, CAL-27, Air, 3 h exposure
[35] = SNU-423, SNU-423, 0.1% O2, 3 h exposure
[36] = SNU-423, SNU-423, Air, 3 h exposure
[37] = Calu-6, Calu-6, 0.1% O2, 3 h exposure
[38] = Calu-6, Calu-6, Air, 3 h exposure
[39] = HepG2, HepG2, 0.1% O2, 3 h exposure
[40] = HepG2, HepG2, Air, 3 h exposure
[41] = A549, A549, 0.1% O2, 3 h exposure
[42] = MDA-MB-231, MDA-MB-231, 0.1% O2, 3 h exposure
[43] = MDA-MB-231, MDA-MB-231, Air, 3 h exposure
[44] = MCF7, MCF-7, 0.1% O2, 3 h exposure

| Structure (SMILES) | IC50 [1, 25] | IC50 [1, 26] | IC50 [2, 27] | IC50 [2, 28] | IC50 [3, 29] | IC50 [3, 30] | IC50 [4, 31] | IC50 [4, 32] | IC50 [5, 33] | IC50 [5, 34] | IC50 [6, 35] | IC50 [6, 36] | IC50 [8, 37] | IC50 [8, 38] | IC50 [9, 39] | IC50 [9, 40] | IC50 [10, 41] | IC50 ([10]; A549, A549, Air, 3 h exposure) | IC50 ([11]; 0.1% O2, 3 h exposure) | IC50 ([11]; Air, 3 h exposure) | further results |
| --- | --- | --- | --- | --- | --- | --- | --- | --- | --- | --- | --- | --- | --- | --- | --- | --- | --- | --- | --- | --- | --- |
| O=C(NCCc1ccc(O)c(O)c1)Nc1n[n+]([O-])c2ccccc2[n+]1[O-] [TPZ-DOPA] | 16.7 ± 0.9 µM | 20.6 ± 1.1 µM | 8.2 ± 2.6 µM | 17.5 ± 5 µM | 9.6 ± 3.4 µM | 28 ± 3.7 µM | 13 ± 1.3 µM | 17.7 ± 1.5 µM | 7.5 ± 4.4 µM | 18.7 ± 3.1 µM | 6 ± 1 µM | 22.5 ± 6.4 µM | 8.3 ± 0.9 µM | 26.7 ± 4.8 µM | 3.7 ± 0.7 µM | 13.8 ± 2.8 µM | 42.3 ± 1.2 µM | 83.6 ± 3.7 µM | 18 ± 3.7 µM | 35.5 ± 6.4 µM | 72 h viability under hypoxia (0.1% oxygen) vs normoxia (air) [7]: viability is lower under hypoxia than that under normoxia; IC50 [12, 42]: 9 ± 1.4 µM; IC50 [12, 43]: 23.1 ± 5.3 µM; IC50 [13, 44]: 15.4 ± 7.09 µM; IC50 ([13]; MCF7, MCF-7, Air, 3 h exposure): 23.1 ± 5.5 µM; IC50 ([14]; 0.1% O2, 3 h exposure): 6.5 ± 0.9 µM; IC50 ([14]; Air, 3 h exposure): 18 ± 2 µM; IC50 ([15]; Hep3B2, 0.1% O2, 3 h exposure): 4.8 ± 0.8 µM; IC50 ([15]; Hep3B2, Air, 3 h exposure): 21.8 ± 2.7 µM |
| Nc1n[n+]([O-])c2ccccc2[n+]1[O-] [TPZ, tirapazamine] | 71.7 ± 4.4 µM | 242 ± 6 µM | 7.5 ± 4.1 µM | 232 ± 35 µM | 15.3 ± 2.5 µM | 270 ± 10 µM | 6.3 ± 1.3 µM | 218 ± 3.5 µM | 10 ± 2 µM | 318 ± 50.2 µM | 40 ± 5.8 µM | > 500 µM | 75 ± 8.6 µM | 340 ± 11.5 µM | 13 ± 4.7 µM | 228 ± 40.1 µM | 81.3 ± 7.2 µM | 585 ± 26.3 µM | 17.1 ± 1 µM | 271 ± 36.4 µM | difference between hypoxic and normoxic cytotoxicity [16]: larger difference between hypoxic and normoxic cytotoxicity; IC50 [12, 42]: 30 ± 5 µM; IC50 [12, 43]: 341 ± 37.5 µM; IC50 [13, 44]: 20 ± 2 µM; IC50 ([13]; MCF7, MCF-7, Air, 3 h exposure): 310 ± 18.3 µM; IC50 ([14]; 0.1% O2, 3 h exposure): 23.3 ± 5.4 µM; IC50 ([14]; Air, 3 h exposure): 383 ± 104 µM; IC50 ([15]; Hep3B2, 0.1% O2, 3 h exposure): 31.2 ± 2.3 µM; IC50 ([15]; Hep3B2, Air, 3 h exposure): > 500 µM |
| O=c1c(O)c(-c2ccc(O)c(O)c2)oc2cc(O)cc(O)c12 [quercetin] | – | – | – | – | – | – | – | – | – | – | – | – | – | – | – | – | – | – | – | – | dose of free quercetin giving results comparable to HABQ [17]: 25 mg/kg; IC50 [18]: 150 to 200 µM; tissue accumulation of free drug [19]: strong renal and pulmonary accumulation; IC50 [20]: 5 µM; IC50 [21]: 10 µM; IC50 [22]: 20 µM; IC50 [23]: 150 to 200 µM |
| COc1cc(/C=C/C(=O)CC(=O)/C=C/c2ccc(O)c(OC)c2)ccc1O [curcumin] | – | – | – | – | – | – | – | – | – | – | – | – | – | – | – | – | – | – | – | – | maximum cell kill that could be achieved ([24]; MDA-MB-231, 40 μM curcumin, 3 h exposure then 96 h): 40%; concentration of curcumin needed for 40% cell kill ([24]; MDA-MB-231, 3 h exposure then 96 h, conjugate as curcumin contained): 40 µM |
| Oc1cc(O)cc(/C=C/c2ccc(O)c(O)c2)c1 [piceatannol] | – | – | – | – | – | – | – | – | – | – | – | – | – | – | – | – | – | – | – | – | tissue accumulation of free drug [19]: strong renal and pulmonary accumulation |

Source: patent US20190282701A1, “CONJUGATES OF HYALURONIC ACID AND ANTICANCER COMPOUNDS” (THE UNIVERSITY OF MANCHESTER, priority 2016, published 2019)
